From patent publication US20040097566A1, “2-Substituted thiazolidinone and oxazolidinone derivatives for the inhibition of phosphatases and the treatment of cancer” (priority 2001, published 2004)

`O=C1N=C(N2CCOCC2)S/C1=C\c1ccc(-c2ccnc(C34CC5CC(CC(C5)C3)C4)n2)cc1` [Compound 41, 5-[4-(2-Adamantan-1-yl-pyrimidin-4-yl)-benzylidene]-2-morpholin-4-yl-thiazol-4-one] gave a melting point of 283 to 285 °C.
With `O=C1N=C(N2CCCC2)S/C1=C\c1cccc(-c2cc(F)c(O)c(C34CC5CC(CC(C5)C3)C4)c2)c1` [Compound 13, 5-[3-(3-Adamantan-1-yl-4-hydroxy-5-fluoro-phenyl)benzylidene]-2-pyrrolidine-1-yl-thiazol-4-one-thiazol-4-one] the melting point was 309 to 311 °C.
In the case of `O=C1N=C(NN2CCOCC2)S/C1=C\c1cccc(-c2cc(F)c(O)c(C34CC5CC(CC(C5)C3)C4)c2)c1` [Compound 73, 5-[3-(3-Adamantan-1-yl-4-hydroxy-5-fluorophenyl)benzylidene]-2-(morpholin-4-yl-amino)-thiazol-4-one], the melting point is reported as 304 to 309 °C.
`O=C1N=C(N2CCOCC2)S/C1=C\c1cccc(-c2ccc(O)c(C34CC5CC(CC(C5)C3)C4)c2)c1` [Compound 2, 5-[3-(3-Adamantan-1-yl-4-hydroxy-phenyl)benzylidene]-2-morpholin-4-yl-thiazol-4-one] gave a melting point of 325 to 328 °C.
`NNC1=NC(=O)/C(=C/c2cccc(-c3cc(F)c(O)c(C45CC6CC(CC(C6)C4)C5)c3)c2)S1` [Compound 74, 5-[3-(3-Adamantan-1-yl-4-hydroxy-5-fluorophenyl)benzylidene]-2-hydrazino-thiazol-4-one] gave a melting point of 303 to 308 °C.
For `CC1(C)COc2ccc(-c3cncc(/C=C4\SC(N5CCOCC5)=NC4=O)c3)cc21` [Compound 82, 5-[5-(3,3-Dimethyl-2,3-dihydro-benzofuran-5-yl)-pyridin-3-ylmethylene]-2-morpholin-4-yl-thiazol-4-one], the melting point was 230 to 233 °C.
`NC(=O)NNC1=NC(=O)/C(=C/c2cccc(-c3cc(F)c(O)c(C45CC6CC(CC(C6)C4)C5)c3)c2)S1` [Compound 72, 5-[3-(3-Adamantan-1-yl-4-hydroxy-5-fluorophenyl)benzylidene]-2-semicarbazid-1-yl-thiazol-4-one] gave a melting point of 234 to 236 °C.
With `O=C1N=C(N2CCOCC2)S/C1=C\c1cccc(-c2ccc(O)c(F)c2)c1` [Compound 64, 5-[3-(3-Fluoro-4-hydroxy-phenyl)-benzylidene]-2-morpholin-4-yl-thiazol-4-one] the melting point was 233 to 235 °C.
In the case of `CSC1=NC(=O)/C(=C/c2cccc(-c3cc(F)c(O)c(C45CC6CC(CC(C6)C4)C5)c3)c2)S1` [Compound 51, 5-[3-(3-Adamantan-1-yl-4-hydroxy-5-fluorophenyl)benzylidene]-2-methylsulfanyl-thiazol-4-one], the melting point is reported as 270 to 271 °C.
Work on `COc1ccc(-c2ccc(O)c(C34CC5CC(CC(C5)C3)C4)c2)cc1/C=C1\SC(N2CCOCC2)=NC1=O` [Compound 86, 5-[3-(3-Adamantan-1-yl-4-hydroxy-phenyl)-6-methoxy-benzylidene]-2-morpholin-4-yl-thiazol-4-one] yielded a melting point of 355 to 360 °C.
Compound `O=C1N=C(N2CCCCC2)S/C1=C\c1ccc(-c2ccc(O)c(C34CC5CC(CC(C5)C3)C4)c2)cc1` [Compound 4, 5-[4-(3-Adamantan-1-yl-4-hydroxy-phenyl)benzylidene]-2-piperidin-1yl-thiazol-4-one] has a melting point of 325 to 328 °C.
Compound `CONC1=NC(=O)/C(=C/c2cccc(-c3cc(F)c(O)c(C45CC6CC(CC(C6)C4)C5)c3)c2)S1` [Compound 71, 5-[3-(3-Adamantan-1-yl-4-hydroxy-5-fluorophenyl)benzylidene]-2-methoxyamino-thiazol-4-one] has a melting point of 286 to 288 °C.
With `CN(C)CCN(Cc1ccccc1)C1=NC(=O)/C(=C/c2cccc(-c3cc(F)c(O)c(C45CC6CC(CC(C6)C4)C5)c3)c2)S1` [Compound 20, 5-[3-(3-Adamantan-1-yl-4-hydroxy-5-fluoro-phenyl)benzylidene]-2[benzyl-(2-dimethylamino-ethyl)-amino]-thiazol-4-one] the melting point was 242 to 246 °C.
Work on `CCN(CC)C1=NC(=O)/C(=C/c2cccc(-c3ccc(O)c(C45CC6CC(CC(C6)C4)C5)c3)c2)S1` [Compound 10, 5-[3-(3-Adamantan-1-yl-4-hydroxy-phenyl)benzylidene]-2-diethylamino-thiazol-4-one] yielded a melting point of 275 to 277 °C.
In the case of `O=C1N=C(N2CCC2)S/C1=C\c1cccc(-c2cc(F)c(O)c(C34CC5CC(CC(C5)C3)C4)c2)c1` [Compound 108], the melting point is reported as 154 to 157 °C.
For `O=C1N=C(N2CCN(c3cccc(C(F)(F)F)c3)CC2)S/C1=C\c1cccc(-c2cc(F)c(O)c(C34CC5CC(CC(C5)C3)C4)c2)c1` [Compound 19, 5-[3-(3-Adamantan-1-yl-4-hydroxy-5-fluoro-phenyl)benzylidene]-2-[4-(3-trifluoromethyl-phenyl)-piperazon-1-yl]-thiazol-4-one], the melting point was 291 to 293 °C.
With `C[C@H]1CN(C2=NC(=O)/C(=C/c3cccc(-c4cc(F)c(O)c(C56CC7CC(CC(C7)C5)C6)c4)c3)S2)C[C@H](C)O1` (relative stereo) [Compound 50, 5-[3-(3-Adamantan-1-yl-4-hydroxy-5-fluoro-phenyl)benzylidene]-2-(trans-2,6-dimethylmorpholin-4-yl)-thiazol-4-one] the melting point was 262 to 264 °C.
In the case of `O=C1N=C(N2CCOCC2)S/C1=C\c1ccc(OC(F)(F)F)c(-c2cc(F)c(O)c(C34CC5CC(CC(C5)C3)C4)c2)c1` [Compound 62, 5-[3-(3-Adamantan-1-yl-4-hydroxy-5-fluoro-phenyl)-4-trifluoromethoxy-benzylidene]-2-morpholin-4-yl-thiazol-4-one], the melting point is reported as 238 °C.
With `O=C1N=C(N2CCCCCCC2)S/C1=C\c1cccc(-c2ccc(O)c(C34CC5CC(CC(C5)C3)C4)c2)c1` [Compound 16, 5-[3-(3-Adamantan-1-yl-4-hydroxy-phenyl)benzylidene]-2-azocan-1-yl-thiazol-4-one] the melting point was 284 to 286 °C.
`O=C1N=C(N2CCCC2)S/C1=C\c1ccc(-c2cc(F)c(O)c(C34CC5CC(CC(C5)C3)C4)c2)s1` [Compound 59, 5-[5-(3-Adamantan-1-yl-4-hydroxy-5-fluoro-phenyl)-thiophene-2-yl-methylene]-2-pyrrolidine-1-yl-thiazol-4-one] gave a melting point of 312 to 315 °C.
`O=C1N=C(NN2CCCC2)S/C1=C\c1cccc(-c2cc(F)c(O)c(C34CC5CC(CC(C5)C3)C4)c2)c1` [Compound 69, 5-[3-(3-Adamantan-1-yl-4-hydroxy-5-fluoro-phenyl)benzylidene]-2-(pyrrolidin-1-ylamino)-thiazol-4-one] gave a melting point of 293 to 296 °C.
For `O=C1N=C(NCCN2CCOCC2)S/C1=C\c1cccc(-c2cc(F)c(O)c(C34CC5CC(CC(C5)C3)C4)c2)c1` [Compound 24, 5-[3-(3-Adamantan-1-yl-4-hydroxy-5-fluoro-phenyl)benzylidene]-2-(2-morpholino-1-yl-ethylamino)-thiazol-4-one], the melting point was 180 to 193 °C.
For `CN1CCN(C2=NC(=O)/C(=C/c3cccc(-c4cc(F)c(O)c(C56CC7CC(CC(C7)C5)C6)c4)c3)S2)CC1` [Compound 9, 5-[3-(3-Adamantan-1-yl-4-hydroxy-5-fluoro-phenyl)benzylidene]-2-(4-methyl-piperazin-1-yl)-thiazol-4-one], the melting point was 226 to 228 °C.
`O=C1N=C(N2CCNCC2)S/C1=C\c1cccc(-c2cc(F)c(O)c(C34CC5CC(CC(C5)C3)C4)c2)c1` [Compound 31, 5-[3-(3-Adamantan-1-yl-4-hydroxy-5-fluoro-phenyl)benzylidene]-2piperazin-1-yl-thiazol-4-one] gave a melting point of 230 to 233 °C.
Work on `O=C1N=C(NO)S/C1=C\c1cccc(-c2cc(F)c(O)c(C34CC5CC(CC(C5)C3)C4)c2)c1` [Compound 52, 5-[3-(3-Adamantan-1-yl-4-hydroxy-5-fluorophenyl)benzylidene]-2-hydroxyamino-thiazol-4-one] yielded a melting point of 238 to 240 °C.
For `Cc1cc(O)c(C23CC4CC(CC(C4)C2)C3)cc1-c1cccc(/C=C2\SC(N3CCOCC3)=NC2=O)c1` [Compound 33, 5-[3-(3-Adamantan-1-yl-4-hydroxy-6-methyl-phenyl)benzylidene]-2-morpholin-4-yl-thiazol-4-one], the melting point was 327 to 329 °C.
Compound `CN(C)c1ccc(/C=C2\SC(N3CCCC3)=NC2=O)cc1-c1cc(F)c(O)c(C23CC4CC(CC(C4)C2)C3)c1` [Compound 61, 5-[3-(3-Adamantan-1-yl-4-hydroxy-5-fluoro-phenyl)-4-dimethylamino-benzylidene]-2-pyrrolidin-1-yl-thiazol-4-one] has a melting point of 294 to 298 °C.
`O=C1N=C(N2CCOCC2)S/C1=C\c1cc(-c2ccc(O)c(C34CC5CC(CC(C5)C3)C4)c2)c(O)cc1O` [Compound 104, 5-[3-(3-Adamantan-1-yl-4-hydroxy-phenyl)-4,6-dihydroxy-benzylidene]-2-morpholin-4yl-thiazol-4-one] gave a melting point of 306 to 310 °C.
With `O=C1N=C(N2CCCCC2)S/C1=C\c1cccc(-c2ccc(O)c(C(=O)c3ccccc3)c2)c1` [Compound 26, 5-[3-(3-Benzoyl-4-hydroxy-phenyl)benzylidene]-2-piperidin-1-yl-thiazol-4-one] the melting point was 135 to 138 °C.
With `O=C1N=C(N2CCC[C@H]2C(=O)O)S/C1=C\c1cccc(-c2cc(F)c(O)c(C34CC5CC(CC(C5)C3)C4)c2)c1` [Compound 53, 5-[3-(3-Adamantan-1-yl-4-hydroxy-5-fluoro-phenyl)benzylidene]-2-(2-(S)-carboxy-1-yl)-thiazol-4-one] the melting point was 195 to 198 °C.
`O=C1N=C(N2CCCCCC2)S/C1=C\c1cccc(-c2ccc(O)c(C34CC5CC(CC(C5)C3)C4)c2)c1` [Compound 14, 5-[3-(3-Adamantan-1-yl-4-hydroxy-phenyl)benzylidene]-2-azepan-1-yl-thiazol-4-one] gave a melting point of 321 to 324 °C.
Work on `CN1CCN(C2=NC(=O)/C(=C/c3cccc(-c4ccc(O)c(C56CC7CC(CC(C7)C5)C6)c4)c3)S2)CC1` [Compound 8, 5-[3-(3-Adamantan-1-yl-4-hydroxy-phenyl)benzylidene]-2-(4-methyl-piperazin-1-yl)-thiazol-4-one] yielded a melting point of 291 to 294 °C.
Work on `N=C(N)NC1=NC(=O)/C(=C/c2cccc(-c3cc(F)c(O)c(C45CC6CC(CC(C6)C4)C5)c3)c2)S1` [Compound 70, 5-[3-(3-Adamantan-1-yl-4-hydroxy-5-fluorophenyl)benzylidene]-2-(N-guanidinyl)-thiazol-4-one] yielded a melting point of 288 to 290 °C.
